ChEMBL document CHEMBL4184286, “Discovery of morpholine-based aryl sulfonamides as Nav1.7 inhibitors” (Bioorg Med Chem Lett, 2018)

How the values were obtained:
[1] = target: T1, Sodium channel protein type 9 subunit alpha (Homo sapiens, UniProt Q15858); test: Antagonist activity at recombinant human Nav1.7 expressed in HEK293 cells assessed as reduction in peak inward current at 1 uM at -120 mV holding potential by patch clamp electrophysiology; format: cell-based
Target sequence in this assay (Q15858 whole entry, looked up): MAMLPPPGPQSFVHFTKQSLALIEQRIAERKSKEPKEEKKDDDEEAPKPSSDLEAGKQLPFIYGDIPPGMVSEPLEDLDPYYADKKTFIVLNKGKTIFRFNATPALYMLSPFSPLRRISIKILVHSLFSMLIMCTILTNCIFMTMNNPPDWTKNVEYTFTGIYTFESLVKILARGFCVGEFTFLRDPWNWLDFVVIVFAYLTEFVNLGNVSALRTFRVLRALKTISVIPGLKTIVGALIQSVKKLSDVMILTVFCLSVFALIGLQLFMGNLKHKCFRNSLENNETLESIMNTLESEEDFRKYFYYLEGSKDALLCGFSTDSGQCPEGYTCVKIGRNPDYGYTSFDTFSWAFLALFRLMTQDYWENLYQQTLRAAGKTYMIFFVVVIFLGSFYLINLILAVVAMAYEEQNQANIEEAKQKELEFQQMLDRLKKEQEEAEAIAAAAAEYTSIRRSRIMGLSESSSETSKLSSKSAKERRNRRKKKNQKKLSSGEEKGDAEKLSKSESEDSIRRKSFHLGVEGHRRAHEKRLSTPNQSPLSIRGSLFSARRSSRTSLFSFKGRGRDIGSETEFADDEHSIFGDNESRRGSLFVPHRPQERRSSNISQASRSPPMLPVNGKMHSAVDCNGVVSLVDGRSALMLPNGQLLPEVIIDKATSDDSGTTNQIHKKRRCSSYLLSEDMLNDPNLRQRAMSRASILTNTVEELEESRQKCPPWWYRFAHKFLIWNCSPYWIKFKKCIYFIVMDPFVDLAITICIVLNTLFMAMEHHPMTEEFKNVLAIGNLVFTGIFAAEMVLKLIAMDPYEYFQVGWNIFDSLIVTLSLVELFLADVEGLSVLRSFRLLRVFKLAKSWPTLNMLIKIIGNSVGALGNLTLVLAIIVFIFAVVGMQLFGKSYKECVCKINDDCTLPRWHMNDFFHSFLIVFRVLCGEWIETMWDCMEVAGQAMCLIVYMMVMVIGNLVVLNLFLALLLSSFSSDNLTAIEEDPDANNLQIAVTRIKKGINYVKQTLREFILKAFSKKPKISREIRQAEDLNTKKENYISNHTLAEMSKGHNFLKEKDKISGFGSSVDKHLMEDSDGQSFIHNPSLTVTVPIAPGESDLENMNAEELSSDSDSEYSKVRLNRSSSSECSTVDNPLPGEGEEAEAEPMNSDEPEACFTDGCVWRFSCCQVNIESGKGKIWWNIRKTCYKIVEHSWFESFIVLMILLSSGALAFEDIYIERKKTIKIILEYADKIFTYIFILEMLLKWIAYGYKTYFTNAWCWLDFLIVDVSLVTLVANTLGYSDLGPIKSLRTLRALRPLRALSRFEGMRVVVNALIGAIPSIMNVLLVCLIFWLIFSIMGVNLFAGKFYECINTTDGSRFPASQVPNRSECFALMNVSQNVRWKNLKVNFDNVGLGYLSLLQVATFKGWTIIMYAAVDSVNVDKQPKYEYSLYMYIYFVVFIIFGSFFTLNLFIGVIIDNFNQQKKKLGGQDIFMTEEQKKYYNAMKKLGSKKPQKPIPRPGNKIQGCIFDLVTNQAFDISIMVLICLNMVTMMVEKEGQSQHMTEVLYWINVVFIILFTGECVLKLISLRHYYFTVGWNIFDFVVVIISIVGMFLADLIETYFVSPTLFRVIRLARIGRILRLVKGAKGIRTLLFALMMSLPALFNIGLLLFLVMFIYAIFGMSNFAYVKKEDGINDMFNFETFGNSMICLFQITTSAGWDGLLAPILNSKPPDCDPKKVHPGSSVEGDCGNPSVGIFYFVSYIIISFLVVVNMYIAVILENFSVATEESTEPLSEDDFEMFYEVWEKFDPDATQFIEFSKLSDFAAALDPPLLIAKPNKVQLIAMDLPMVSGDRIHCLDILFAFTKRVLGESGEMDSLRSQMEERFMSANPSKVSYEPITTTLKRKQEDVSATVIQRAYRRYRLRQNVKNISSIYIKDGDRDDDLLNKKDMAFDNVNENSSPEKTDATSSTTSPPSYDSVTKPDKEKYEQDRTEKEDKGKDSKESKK

[2] = target: T1, Sodium channel protein type 9 subunit alpha; test: Antagonist activity at recombinant human Nav1.7 expressed in HEK293 cells assessed as reduction in channel current at -60 mV holding potential after 600 secs by barracuda automated electrophysiology method; format: cell-based
Target sequence in this assay (Q15858 whole entry): as the sequence (Q15858 whole entry, looked up) above

[3] = target: Sodium channel protein type 8 subunit alpha (Homo sapiens, UniProt Q9UQD0); test: Antagonist activity at recombinant human Nav1.6 assessed as reduction in channel current by barracuda automated electrophysiology method
[4] = target: Sodium channel protein type 2 subunit alpha (Homo sapiens, UniProt Q99250); test: Antagonist activity at recombinant human Nav1.2 assessed as reduction in channel current by barracuda automated electrophysiology method
[5] = target: T1, Sodium channel protein type 9 subunit alpha; test: Antagonist activity at recombinant human Nav1.7 expressed in HEK293 cells assessed as reduction in peak inward current at 100 nM at -120 mV holding potential by patch clamp electrophysiology; format: cell-based
Target sequence in this assay (Q15858 whole entry, looked up): as above

[6] = target: Sodium channel protein type 5 subunit alpha (Homo sapiens, UniProt Q14524); test: Antagonist activity at recombinant human Nav1.5 expressed in HEK293 cells assessed as reduction in channel current at -50 mV holding potential after 600 secs by barracuda automated electrophysiology method; format: ADME, cell-based
[7] = target: T1, Sodium channel protein type 9 subunit alpha; test: Antagonist activity at recombinant human Nav1.7 expressed in HEK293 cells assessed as reduction in peak inward current at -65 mV holding potential by patch clamp electrophysiology; format: cell-based
Target sequence in this assay (Q15858 whole entry): as the sequence (Q15858 whole entry, looked up) above

Chain of Sodium channel protein type 2 subunit alpha (Q99250 whole entry): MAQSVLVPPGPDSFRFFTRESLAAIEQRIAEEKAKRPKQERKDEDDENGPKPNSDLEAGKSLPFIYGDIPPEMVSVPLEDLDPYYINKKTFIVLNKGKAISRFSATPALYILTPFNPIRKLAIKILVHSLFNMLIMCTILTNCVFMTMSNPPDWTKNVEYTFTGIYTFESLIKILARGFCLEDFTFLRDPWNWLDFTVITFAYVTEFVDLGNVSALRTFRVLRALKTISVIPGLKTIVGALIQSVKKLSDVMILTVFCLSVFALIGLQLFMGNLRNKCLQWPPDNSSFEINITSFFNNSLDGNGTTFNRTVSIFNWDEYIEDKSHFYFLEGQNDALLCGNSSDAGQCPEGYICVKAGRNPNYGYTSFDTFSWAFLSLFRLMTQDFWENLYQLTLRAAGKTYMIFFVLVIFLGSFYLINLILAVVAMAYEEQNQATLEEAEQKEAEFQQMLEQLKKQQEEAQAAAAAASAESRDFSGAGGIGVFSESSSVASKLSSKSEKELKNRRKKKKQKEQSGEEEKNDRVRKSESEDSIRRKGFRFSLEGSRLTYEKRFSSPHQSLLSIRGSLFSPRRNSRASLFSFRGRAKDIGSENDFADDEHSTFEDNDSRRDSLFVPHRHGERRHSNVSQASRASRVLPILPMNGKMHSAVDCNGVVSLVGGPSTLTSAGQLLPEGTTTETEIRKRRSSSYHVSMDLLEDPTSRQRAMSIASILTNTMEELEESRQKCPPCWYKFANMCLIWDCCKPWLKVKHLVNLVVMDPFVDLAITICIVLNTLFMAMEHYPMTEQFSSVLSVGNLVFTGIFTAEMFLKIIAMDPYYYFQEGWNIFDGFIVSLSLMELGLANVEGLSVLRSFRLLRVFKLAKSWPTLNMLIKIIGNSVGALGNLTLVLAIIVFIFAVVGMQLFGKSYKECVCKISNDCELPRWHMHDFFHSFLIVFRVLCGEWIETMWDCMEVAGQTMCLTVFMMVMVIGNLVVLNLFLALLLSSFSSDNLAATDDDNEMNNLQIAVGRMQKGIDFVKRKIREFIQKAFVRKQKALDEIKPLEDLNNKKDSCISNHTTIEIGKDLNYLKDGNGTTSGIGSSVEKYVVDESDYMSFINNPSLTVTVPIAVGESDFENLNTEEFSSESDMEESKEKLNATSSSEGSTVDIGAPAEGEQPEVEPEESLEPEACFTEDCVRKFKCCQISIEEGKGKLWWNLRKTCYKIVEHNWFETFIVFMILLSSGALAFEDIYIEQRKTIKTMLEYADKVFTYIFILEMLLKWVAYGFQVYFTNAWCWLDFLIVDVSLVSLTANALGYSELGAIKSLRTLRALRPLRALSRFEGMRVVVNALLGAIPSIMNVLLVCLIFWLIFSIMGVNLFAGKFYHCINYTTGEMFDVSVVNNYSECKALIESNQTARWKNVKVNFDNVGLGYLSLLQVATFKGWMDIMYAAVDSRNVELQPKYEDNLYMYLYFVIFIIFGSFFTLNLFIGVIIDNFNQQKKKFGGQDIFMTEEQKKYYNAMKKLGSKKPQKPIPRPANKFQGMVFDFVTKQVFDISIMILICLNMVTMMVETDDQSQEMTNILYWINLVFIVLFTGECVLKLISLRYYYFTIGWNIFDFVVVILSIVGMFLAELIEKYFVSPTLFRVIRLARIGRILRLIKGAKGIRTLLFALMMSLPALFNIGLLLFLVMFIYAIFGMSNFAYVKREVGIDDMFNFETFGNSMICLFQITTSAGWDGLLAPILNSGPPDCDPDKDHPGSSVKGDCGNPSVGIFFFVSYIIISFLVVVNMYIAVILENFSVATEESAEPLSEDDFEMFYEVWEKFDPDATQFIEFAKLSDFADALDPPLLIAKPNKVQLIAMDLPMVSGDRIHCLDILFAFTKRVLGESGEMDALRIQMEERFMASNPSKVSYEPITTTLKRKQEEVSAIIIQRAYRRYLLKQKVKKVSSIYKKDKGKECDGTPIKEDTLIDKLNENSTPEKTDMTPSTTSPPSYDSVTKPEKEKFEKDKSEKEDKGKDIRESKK

In the case of `CC1(C)CN[C@H](c2cc(Cl)cc(Cl)c2)[C@@H](Oc2cc(F)c(S(=O)(=O)Nc3ncns3)cc2F)O1`, the inhibition [1] is reported as 48%, the IC50 [2] is reported as 41 nM and the IC50 [3] is reported as 1600 nM. The IC50 [4] was 1500 nM, the inhibition [5] was 8% and the IC50 [6] was 6000 nM. For the same compound, the IC50 [7] was 11 nM.
